Results on one molecule are retold here after US6620821B2, “HMG-CoA reductase inhibitors and method” (Bristol-Myers Squibb Company, priority 2000, dated 2003).

Turning to `CC(C)c1nc2c(c(-c3ccc(F)cc3)c1CC[C@@H](O)C[C@@H](O)CC(=O)[O-])CCCc1ccccc1-2.[Na+]`, the melting point lay within 253 to 254 °C.

The term melting point denotes the temperature, or range, at which the solid turns liquid.
